From article PMC5095062, “The novel choline kinase inhibitor ICL-CCIC-0019 reprograms cellular metabolism and inhibits cancer cell growth” (Oncotarget, 2016)

Columns and labels:
Test in all cases: Kinase selectivity screen
Assay type in all cases: biochemical
CHK2 = CHK2 (Homo sapiens, UniProt O96017); conditions: CHK2, 10 μM
Experimental: (§1) The substantially less demanding synthesis of ICL-CCIC-0019 compared with MN58B bears additional advantages. […] This consequently diminished intracellular PCho concentration, and importantly, the incorporation of [^3H]-choline into lipids (Figure 1D). […] To assess kinase specificity, ICL-CCIC-0019 was tested against a panel of 131 human kinases (Figure 1E and Supplementary Table S1). […] Inhibition greater than 20% was attained for insulin-like growth factor 1 (IGF-1R, 35 ± 7% inhibition), mitogen-activated protein kinase-activated protein kinase 3 (MAPKAP-K3, 33 ± 6%), extracellular signal regulated kinase 8 (ERK8, 31 ± 4%), ribosomal S6 kinase 1 (RSK1, 22 ± 6%), and v-erb-a erythroblastic leukemia viral oncogene homolog 4 (HER4, 21 ± 7%).

CSK = CSK (Homo sapiens, UniProt P41240)
Experimental: as §1

MLK1 = MLK1 (Homo sapiens, UniProt P80192); conditions: MLK1, 10 μM
Experimental: as §1

IR = IR (Homo sapiens, UniProt P06213)
Experimental: as §1

STK33 = STK33 (Homo sapiens, UniProt Q9BYT3); conditions: STK33, 10 μM
Experimental: as §1

PKA = PKA (Homo sapiens, UniProt P17612)
Experimental: as §1

VEG-FR = VEG-FR (Homo sapiens, UniProt P17948)
Experimental: as §1

JNK3 = JNK3 (Homo sapiens, UniProt P53779); conditions: JNK3, 10 μM
Sequence of JNK3 (P53779 whole entry): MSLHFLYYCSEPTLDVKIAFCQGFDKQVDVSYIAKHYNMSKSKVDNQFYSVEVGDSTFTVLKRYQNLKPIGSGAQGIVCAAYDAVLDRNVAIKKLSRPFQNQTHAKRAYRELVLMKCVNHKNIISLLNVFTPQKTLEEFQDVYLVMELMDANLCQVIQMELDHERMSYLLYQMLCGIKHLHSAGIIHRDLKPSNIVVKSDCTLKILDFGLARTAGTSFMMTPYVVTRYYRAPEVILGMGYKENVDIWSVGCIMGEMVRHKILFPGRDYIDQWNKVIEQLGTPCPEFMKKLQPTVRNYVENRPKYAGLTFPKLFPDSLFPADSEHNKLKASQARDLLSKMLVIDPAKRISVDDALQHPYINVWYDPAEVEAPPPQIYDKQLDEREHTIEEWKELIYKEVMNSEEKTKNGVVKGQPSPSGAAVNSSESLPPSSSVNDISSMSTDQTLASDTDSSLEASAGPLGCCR
Experimental: as §1

IRR = IRR (Homo sapiens, UniProt P14616)
Experimental: as §1

RIPK2 = RIPK2 (Homo sapiens, UniProt O43353); conditions: RIPK2, 10 μM
Experimental: as §1

SGK1 = SGK1 (Homo sapiens, UniProt O00141); conditions: SGK1, 10 μM
Experimental: as §1

CK2 = CK2 (Homo sapiens, UniProt P68400); conditions: CK2, 10 μM
Experimental: as §1

PKBa = PKBa (Homo sapiens, UniProt P31749)
Experimental: as §1

MKK2 = MKK2 (Homo sapiens, UniProt P36507); conditions: MKK2, 10 μM
Experimental: as §1

TSSK1 = TSSK1 (Homo sapiens, UniProt Q9BXA7); conditions: TSSK1, 10 μM
Experimental: as §1

SIK3 = SIK3 (Homo sapiens, UniProt Q9Y2K2); conditions: SIK3, 10 μM
Sequence of SIK3 (Q9Y2K2 whole entry): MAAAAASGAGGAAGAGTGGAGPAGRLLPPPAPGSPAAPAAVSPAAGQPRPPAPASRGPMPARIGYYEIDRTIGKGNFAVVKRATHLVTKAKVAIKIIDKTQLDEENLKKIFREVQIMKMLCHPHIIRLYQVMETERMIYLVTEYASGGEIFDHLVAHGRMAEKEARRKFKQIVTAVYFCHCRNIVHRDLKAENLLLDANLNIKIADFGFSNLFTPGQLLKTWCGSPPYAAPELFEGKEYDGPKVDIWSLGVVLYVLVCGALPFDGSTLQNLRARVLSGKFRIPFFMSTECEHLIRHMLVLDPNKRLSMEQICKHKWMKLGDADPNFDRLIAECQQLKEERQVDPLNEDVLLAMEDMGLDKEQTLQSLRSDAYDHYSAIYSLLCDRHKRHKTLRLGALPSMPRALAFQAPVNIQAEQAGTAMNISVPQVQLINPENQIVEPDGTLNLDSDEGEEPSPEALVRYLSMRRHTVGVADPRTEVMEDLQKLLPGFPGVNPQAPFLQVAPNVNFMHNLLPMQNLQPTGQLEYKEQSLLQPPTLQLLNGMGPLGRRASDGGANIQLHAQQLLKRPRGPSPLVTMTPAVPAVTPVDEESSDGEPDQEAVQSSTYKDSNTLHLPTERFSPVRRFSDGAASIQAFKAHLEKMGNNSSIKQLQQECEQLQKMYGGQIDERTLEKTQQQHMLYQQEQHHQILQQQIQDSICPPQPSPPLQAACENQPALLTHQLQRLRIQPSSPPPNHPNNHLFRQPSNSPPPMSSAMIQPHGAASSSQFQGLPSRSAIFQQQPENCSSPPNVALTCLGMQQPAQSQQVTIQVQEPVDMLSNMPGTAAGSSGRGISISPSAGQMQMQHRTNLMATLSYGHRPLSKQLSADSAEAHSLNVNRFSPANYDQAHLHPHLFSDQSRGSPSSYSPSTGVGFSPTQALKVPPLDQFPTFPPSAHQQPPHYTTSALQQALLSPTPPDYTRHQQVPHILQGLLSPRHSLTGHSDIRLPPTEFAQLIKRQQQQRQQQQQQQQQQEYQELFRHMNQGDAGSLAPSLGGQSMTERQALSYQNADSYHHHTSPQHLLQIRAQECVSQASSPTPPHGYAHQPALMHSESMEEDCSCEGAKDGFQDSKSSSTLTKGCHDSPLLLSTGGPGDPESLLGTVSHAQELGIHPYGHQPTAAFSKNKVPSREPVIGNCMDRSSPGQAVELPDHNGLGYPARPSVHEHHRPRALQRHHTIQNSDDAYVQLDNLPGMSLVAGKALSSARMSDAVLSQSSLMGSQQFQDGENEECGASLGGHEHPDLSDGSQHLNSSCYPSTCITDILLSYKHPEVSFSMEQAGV
Experimental: as §1

PKCa = PKCa (Homo sapiens, UniProt P17252)
Experimental: as §1

ERK8 = ERK8 (Homo sapiens, UniProt Q8TD08); conditions: ERK8, 10 μM
Sequence of ERK8 (Q8TD08 whole entry): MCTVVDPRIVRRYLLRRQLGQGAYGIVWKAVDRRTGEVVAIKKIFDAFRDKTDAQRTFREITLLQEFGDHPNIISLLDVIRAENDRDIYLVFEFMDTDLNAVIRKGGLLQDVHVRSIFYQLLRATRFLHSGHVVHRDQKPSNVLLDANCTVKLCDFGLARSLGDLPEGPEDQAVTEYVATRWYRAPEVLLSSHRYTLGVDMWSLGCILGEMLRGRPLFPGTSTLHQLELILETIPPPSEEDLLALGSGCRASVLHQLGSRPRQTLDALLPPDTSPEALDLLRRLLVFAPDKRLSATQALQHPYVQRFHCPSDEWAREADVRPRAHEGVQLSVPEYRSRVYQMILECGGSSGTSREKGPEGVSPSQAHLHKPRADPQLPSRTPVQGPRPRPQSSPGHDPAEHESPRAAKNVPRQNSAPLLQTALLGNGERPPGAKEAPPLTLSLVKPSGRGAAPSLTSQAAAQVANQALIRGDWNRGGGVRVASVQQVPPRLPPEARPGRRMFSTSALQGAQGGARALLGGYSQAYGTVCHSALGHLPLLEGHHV
Experimental: as §1

PKBb = PKBb (Homo sapiens, UniProt P31751)
Sequence of PKBb (P31751 whole entry): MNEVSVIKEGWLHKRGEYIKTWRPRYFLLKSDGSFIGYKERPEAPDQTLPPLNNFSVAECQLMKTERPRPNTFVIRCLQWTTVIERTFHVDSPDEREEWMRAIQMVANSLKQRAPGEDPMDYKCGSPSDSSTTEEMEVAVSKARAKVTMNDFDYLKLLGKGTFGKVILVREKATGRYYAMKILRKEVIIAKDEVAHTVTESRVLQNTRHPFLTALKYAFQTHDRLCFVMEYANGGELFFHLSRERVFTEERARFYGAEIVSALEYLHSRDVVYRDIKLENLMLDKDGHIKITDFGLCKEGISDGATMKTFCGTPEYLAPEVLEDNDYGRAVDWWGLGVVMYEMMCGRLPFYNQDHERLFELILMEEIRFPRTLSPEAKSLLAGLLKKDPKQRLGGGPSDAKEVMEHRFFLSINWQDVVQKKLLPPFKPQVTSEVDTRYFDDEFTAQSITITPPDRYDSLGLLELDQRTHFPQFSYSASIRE
Experimental: as §1

PRK2 = PRK2 (Homo sapiens, UniProt Q16513); conditions: PRK2, 10 μM
Sequence of PRK2 (Q16513 whole entry): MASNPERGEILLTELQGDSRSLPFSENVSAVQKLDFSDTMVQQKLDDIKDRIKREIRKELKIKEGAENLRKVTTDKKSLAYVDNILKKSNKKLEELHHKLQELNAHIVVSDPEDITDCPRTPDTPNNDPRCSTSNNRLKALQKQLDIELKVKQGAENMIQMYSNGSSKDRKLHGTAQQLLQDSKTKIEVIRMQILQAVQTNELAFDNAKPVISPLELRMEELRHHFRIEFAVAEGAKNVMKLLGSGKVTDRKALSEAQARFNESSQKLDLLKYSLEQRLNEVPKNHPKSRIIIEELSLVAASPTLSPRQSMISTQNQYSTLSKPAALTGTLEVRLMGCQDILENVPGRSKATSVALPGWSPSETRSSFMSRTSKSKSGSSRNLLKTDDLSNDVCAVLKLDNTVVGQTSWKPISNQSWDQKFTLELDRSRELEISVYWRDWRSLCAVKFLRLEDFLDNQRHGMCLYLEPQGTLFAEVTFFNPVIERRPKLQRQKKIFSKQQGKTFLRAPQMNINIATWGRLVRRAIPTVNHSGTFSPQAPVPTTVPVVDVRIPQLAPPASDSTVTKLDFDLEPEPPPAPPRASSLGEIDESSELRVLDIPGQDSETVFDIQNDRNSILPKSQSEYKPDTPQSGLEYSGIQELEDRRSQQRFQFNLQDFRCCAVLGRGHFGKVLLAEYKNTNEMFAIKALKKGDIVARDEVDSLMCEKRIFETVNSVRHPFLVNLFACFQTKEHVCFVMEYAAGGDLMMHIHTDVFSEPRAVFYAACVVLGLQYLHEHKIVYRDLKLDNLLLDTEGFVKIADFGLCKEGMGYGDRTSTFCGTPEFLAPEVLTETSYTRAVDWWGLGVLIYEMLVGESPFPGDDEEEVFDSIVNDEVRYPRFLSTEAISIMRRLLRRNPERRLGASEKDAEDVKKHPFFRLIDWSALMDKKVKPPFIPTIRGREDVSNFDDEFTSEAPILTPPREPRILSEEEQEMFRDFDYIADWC
Experimental: as §1

MPSK1 = MPSK1 (Homo sapiens, UniProt O75716); conditions: MPSK1, 10 μM
Experimental: as §1

DDR2 = DDR2 (Homo sapiens, UniProt Q16832); conditions: DDR2, 10 μM
Experimental: as §1

p38a MAPK = p38a MAPK (Homo sapiens, UniProt Q16539)
Experimental: as §1

WNK1 = WNK1 (Homo sapiens, UniProt Q9H4A3); conditions: WNK1, 10 μM
Experimental: as §1

MNK1 = MNK1 (Homo sapiens, UniProt Q9BUB5); conditions: MNK1, 10 μM
Experimental: as §1

DYRK2 = DYRK2 (Homo sapiens, UniProt Q92630); conditions: DYRK2, 10 μM
Experimental: as §1

CK1δ = CK1δ (Homo sapiens, UniProt P48730)
Experimental: as §1

NUAK1 = NUAK1 (Homo sapiens, UniProt O60285); conditions: NUAK1, 10 μM
Sequence of NUAK1 (O60285 whole entry): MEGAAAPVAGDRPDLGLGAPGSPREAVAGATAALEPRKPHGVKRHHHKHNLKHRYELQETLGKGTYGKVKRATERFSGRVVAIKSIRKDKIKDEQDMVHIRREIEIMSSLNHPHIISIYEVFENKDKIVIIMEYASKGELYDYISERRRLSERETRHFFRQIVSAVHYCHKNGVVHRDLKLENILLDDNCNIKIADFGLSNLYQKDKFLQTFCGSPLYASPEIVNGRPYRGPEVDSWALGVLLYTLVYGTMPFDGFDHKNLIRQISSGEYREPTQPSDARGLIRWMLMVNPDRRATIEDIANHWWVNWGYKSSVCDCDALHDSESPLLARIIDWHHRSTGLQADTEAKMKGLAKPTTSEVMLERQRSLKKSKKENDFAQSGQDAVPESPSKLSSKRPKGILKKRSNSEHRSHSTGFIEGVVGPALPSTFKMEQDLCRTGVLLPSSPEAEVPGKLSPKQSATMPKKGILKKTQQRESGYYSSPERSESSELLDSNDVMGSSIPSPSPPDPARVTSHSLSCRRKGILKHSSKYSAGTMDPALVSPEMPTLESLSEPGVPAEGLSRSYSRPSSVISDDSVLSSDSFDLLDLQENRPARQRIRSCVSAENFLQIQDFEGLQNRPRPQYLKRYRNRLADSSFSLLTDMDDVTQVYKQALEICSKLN
Experimental: as §1

MST2 = MST2 (Homo sapiens, UniProt Q13188); conditions: MST2, 10 μM
Experimental: as §1

CHK1 = CHK1 (Homo sapiens, UniProt O14757); conditions: CHK1, 10 μM
Experimental: as §1

EPH-A2 = EPH-A2 (Homo sapiens, UniProt P29317); conditions: EPH-A2, 10 μM
Experimental: as §1

GCK = GCK (Homo sapiens, UniProt Q12851)
Experimental: as §1

Aurora B = Aurora B (Homo sapiens, UniProt Q96GD4)
Experimental: as §1

p38g MAPK = p38g MAPK (Homo sapiens, UniProt P53778)
Experimental: as §1

PHK = PHK (Homo sapiens, UniProt Q16816)
Sequence of PHK (Q16816 whole entry): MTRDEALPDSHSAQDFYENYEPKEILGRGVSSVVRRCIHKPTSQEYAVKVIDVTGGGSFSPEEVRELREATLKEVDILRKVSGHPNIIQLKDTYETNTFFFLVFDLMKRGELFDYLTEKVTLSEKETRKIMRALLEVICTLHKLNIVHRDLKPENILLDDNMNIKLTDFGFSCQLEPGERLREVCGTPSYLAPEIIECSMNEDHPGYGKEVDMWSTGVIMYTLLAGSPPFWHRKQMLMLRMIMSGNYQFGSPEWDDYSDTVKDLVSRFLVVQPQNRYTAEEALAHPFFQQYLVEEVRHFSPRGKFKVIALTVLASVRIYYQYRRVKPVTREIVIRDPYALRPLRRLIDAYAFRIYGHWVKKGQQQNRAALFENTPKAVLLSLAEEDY
Experimental: as §1

TIE2 = TIE2 (Homo sapiens, UniProt Q02763); conditions: TIE2, 10 μM
Experimental: as §1

MKK1 = MKK1 (Homo sapiens, UniProt Q02750); conditions: MKK1, 10 μM
Experimental: as §1

CN(C)c1cc[n+](CCCCCCCCCCCC[n+]2ccc(N(C)C)cc2)cc1 [ICL-CCIC-0019]
remaining activity at 10 µM (CHK2): 90% | remaining activity at 10 µM (CSK): 96% | remaining activity at 10 µM (MLK1): 91% | remaining activity at 10 µM (IR): 103% | remaining activity at 10 µM (STK33): 99% | remaining activity at 10 µM (PKA): 106% | remaining activity at 10 µM (VEG-FR): 80% | remaining activity at 10 µM (JNK3): 92% | remaining activity at 10 µM (IRR): 92% | remaining activity at 10 µM (RIPK2): 102% | remaining activity at 10 µM (SGK1): 94% | remaining activity at 10 µM (CK2): 86% | remaining activity at 10 µM (PKBa): 101% | remaining activity at 10 µM (MKK2): 95% | remaining activity at 10 µM (TSSK1): 107% | remaining activity at 10 µM (SIK3): 102% | remaining activity at 10 µM (PKCa): 98% | inhibition at 10 µM (ERK8): 31 ± 4% | remaining activity at 10 µM (ERK8): 69% | remaining activity at 10 µM (PKBb): 93% | remaining activity at 10 µM (PRK2): 94% | remaining activity at 10 µM (MPSK1): 105% | remaining activity at 10 µM (DDR2): 85% | remaining activity at 10 µM (p38a MAPK): 108% | remaining activity at 10 µM (WNK1): 102% | remaining activity at 10 µM (MNK1): 101% | remaining activity at 10 µM (DYRK2): 96% | remaining activity at 10 µM (CK1δ): 100% | remaining activity at 10 µM (NUAK1): 103% | remaining activity at 10 µM (MST2): 89% | remaining activity at 10 µM (CHK1): 97% | remaining activity at 10 µM (EPH-A2): 93% | remaining activity at 10 µM (GCK): 89% | remaining activity at 10 µM (Aurora B): 102% | remaining activity at 10 µM (p38g MAPK): 99% | remaining activity at 10 µM (PHK): 94% | remaining activity at 10 µM (TIE2): 89% | remaining activity at 10 µM (MKK1): 82%
